# Experimental data reported in patent publication US10793567B2, “Bicyclic inhibitors of histone deacetylase” (Rodin Therapeutics, Inc., priority 2017, dated 2020).
# pIC50: −log10 of the molar value. Read-outs that look alike come from different tables or passages of the source.
# Experiments:
# HDAC2 [1] = biological target: T1, HDAC2 (Homo sapiens (Human), UniProt Q92769); test: HDAC2 enzymatic inhibition assay in SY5Y cell lysate (HDAC-Glo 2); format: cell-based; conditions: SH-SY5Y cells, five hours incubation
# Experimental: SH-SY5Y cells (Sigma) were cultured in Eagle's Modified Essential Medium supplemented with 10% fetal bovine serum and pen/strep. Twenty-four hours prior to compound dosing 20 uL of cells were plated in white 384 well plates at a density of 1,500 cells/well. Compounds were serially diluted in neat DMSO and then diluted 1:100 v/v into media without FBS and mixed. Media was removed from the plated cells and the diluted compounds in serum free media (1% v/v final DMSO) were added and incubated at 37.0 for five hours. Ten uL of HDAC-Glo 2 reagent with 0.1% Triton X-100 was then added, the plate was mixed and allowed to develop at room temperature for 100 minutes. Plates were then read with a Spectramax LMax luminometer employing a 0.4 s integration time. Dose response curves were constructed with normalized data where CI-994 at 100 uM was defined as 100% inhibition and DMSO alone as 0% inhibition.
# HDAC1 = HDAC1 (Homo sapiens (Human), UniProt Q13547); test: HDAC1 enzymatic assay (Caliper LabChip, peptide deacetylation); format: biochemical; conditions: 17 hours, 25° C.
# Experimental: (§1) The following describes an assay protocol for measuring the deacetylation of a peptide substrate by the enzymes HDAC2 or HDAC1. Enzyme, substrate, and cofactors are combined in a well of a microtiter plate and incubated for […] at 25° C. At the end of the incubation, the reaction is quenched by the addition of an SDS-containing buffer. Substrate and product are separated and quantified electrophoretically using the microfluidic-based LabChip 3000 Drug Discovery System from Caliper Life Sciences. The peptide substrate used in this assay is FAM-TSRHK(AC)KL-CONH2 (FAM is carboxyfluorescein). Peptide should be >98% purity by Capillary Electrophoresis. • 1. To a well of a 384-well plate, add 5 μL of 2× enzyme buffer. Using Labcyte Echo 550, add 100 nl compound. Enzyme and compound may be pre-incubated at this time if desired. • 2. Add 5 μL of 2× substrate buffer. • 3. Incubate plate at 25° C. for 17 hours. • 4. Terminate reaction by adding 40 μL of 1.55× stop buffer. • 5. Create job on a Caliper LabChip® 3000 Drug Discovery System. • 6. Load the plate and start electrophoresis using blue laser (480 nm) for excitation and green CCD (520 nm) for detection (CCD2). Reaction time=17 hours; Reaction temperature=25° C.
# 1% DMSO (from compound) 1 μM FAM-TSRHK(AC)KL-CONH2 5 nM HDAC Enzyme (specific activity may vary from lot-to-lot, and enzyme concentration may need to be adjusted to yield˜10-20% conversion of substrate to product).
# Substrate and product peptides present in each sample are separated electrophoretically using the LabChip 3000 capillary electrophoresis instrument. As substrate and product peptides are separated, two peaks of fluorescence are observed. Change in the relative fluorescence intensity of the substrate and product peaks is the parameter measured, reflecting enzyme activity. Capillary electrophoregramms (RDA acquisition files) are analyzed using HTS Well Analyzer software (Caliper Life Sciences). The […] in each sample is determined as the product to sum ratio (PSR): P/(S+P), where P is the peak height of the product peptide and S is the peak height of the substrate peptide. For each compound, enzyme activity is measured at various concentrations (12 concentrations of compound spaced by 3× dilution intervals). Negative control samples (0%-inhibition in the absence of inhibitor) and positive control samples (100%-inhibition, in the presence of 20 mM EDTA) are assembled in replicates of four and are used to calculate %-inhibition values for each compound at each concentration. Percent inhibition (Pinh) is determined using following equation: Pinh=(PSR0%−PSRinh)/(PSR0%−PSR100%)*100, where PSRinh is the product sum ratio in the presence of inhibitor, PSR0% is the average product sum ration in the absence of inhibitor and PSR100% is the average product sum ratio in 100%-inhibition control samples.
# The IC50 values of inhibitors are determined by fitting the inhibition curves (Pinh versus inhibitor concentration) by 4 parameter sigmoidal dose-response model using XLfit 4 software (IBDS).
# In the table, “A” indicates a […] of between 0.1 μM and 0.5 μM and “B” a Kd value of greater than 0.5 μM and less than or equal to 5.0 μM.
# HDAC2 [2] = biological target: T1, HDAC2; test: HDAC2 enzymatic assay (Caliper LabChip, peptide deacetylation); format: biochemical; conditions: 17 hours, 25° C.
# Experimental: as §1, with “Load the plate and start electrophoresis using blue laser (480 nm) for excitation and green CCD (520 nm) for detection (CCD2). Reaction time=17 hours; Reaction temperature=25° C.” left out
# Substrate and product peptides present in each sample are separated electrophoretically using the LabChip 3000 capillary electrophoresis instrument. As substrate and product peptides are separated, two peaks of fluorescence are observed. Change in the relative fluorescence intensity of the substrate and product peaks is the parameter measured, reflecting enzyme activity. Capillary electrophoregramms (RDA acquisition files) are analyzed using HTS Well Analyzer software (Caliper Life Sciences). The […] in each sample is determined as the product to sum ratio (PSR): P/(S+P), where P is the peak height of the product peptide and S is the peak height of the substrate peptide. For each compound, enzyme activity is measured at various concentrations (12 concentrations of compound spaced by 3× dilution intervals). […]
# The IC50 values of inhibitors are determined by fitting the inhibition curves (Pinh versus inhibitor concentration) by 4 parameter sigmoidal dose-response model using XLfit 4 software (IBDS). […]
# [3] = Brain and plasma exposure following IV and PO administration to mice; format: in vivo; conditions: mice; for Projected free brain @ 10 mpk / Brain Cmax @ 10 mpk: 10 mg/kg PO; for half-life / clearance: mouse, plasma; for clearance: read-out: IV PK Cl (converted)
# Experimental: Compounds were dosed in mice at either 10 mg/kg or 30 mg/kg PO, and were dosed at 1 mg/kg IV. Three animals for collection at each time point for plasma via bleeding at 0.25, 0.5, 1, 4, 12 and 24 h. Terminal bleeding for plasma and sampling for brain at 0.25, 0.5, 1, 4, 12 and 24 h (also three animals per brain exposure time point group). Total of six time points for plasma and six time points for brain.
# Plasma: The animal was restrained manually at the designated time points, approximately 150 μL blood/time point was collected into K2EDTA tube via retro orbital puncture or cardiac puncture under anesthesia with Isoflurane. The blood sample was centrifuged (2000 g, 4° C., 5 min) to generate plasma within 30 min after bleeding.
# Brain: At the designated time points, a mid-line incision was made in the animals scalp and the skin was retracted. Using small bone cutters and rongeurs, removed the skull overlying the brain. Removed the brain using a spatula and rinse with cold saline. Placed the brain in screw-top tubes, and then stored the tubes under −70° C. until analysis.
# [4] = tested on: human erythroid progenitors (CFU-E, BFU-E); test: Erythroid CFU assay (colony forming cell assay, bone marrow); format: cell-based; conditions: 14 days in culture
# Experimental: (§2) Compounds were tested to evaluate the potential effects on human erythroid and myeloid progenitors using colony forming cell assays. Clonogenic progenitors of human erythroid (CFU-E, BFU-E), granulocyte-monocyte (CFU-GM) and multipotential (CFU-GEMM) lineages were assessed in a semi-solid methylcellulose-based media formulation containing rhlL-3 (10 ng/mL), rhGM-SCF (10 ng/mL), rhSCF (50 ng/mL) and Epo (3 U/mL).
# (§3) Normal human bone marrow light density cells derived from normal bone marrow (NorCal Biologics, California), were stored in the gaseous phase of liquid nitrogen (−152° C.) until required for the assay. On the day of the experiment, the cells were thawed rapidly, the contents of each vial was diluted in 10 mL of Iscove's modified Dulbecco's medium containing 10% fetal bovine serum (IMDM+10% FBS) and washed by centrifugation (approximately 1200 r.p.m. for 10 minutes, room temperature). The supernatant was discarded and the cell pellets resuspended in a known volume of IMDM+10% FBS. A cell count (3% glacial acetic acid) and viability assessment (trypan blue exclusion test) was performed for the bone marrow sample.
# (§4) On the day of the experiment, the compounds were dissolved in DMSO to a stock concentration of 10 mM. Serial dilutions were prepared from the stock concentration to achieve concentrations of 2 and 0.4 mM. When added to the methylcellulose-based media at 1:1000 (v/v), the final test concentrations of 10, 2 and 0.4 μM were achieved. Additionally, 5-FU was evaluated at 1.0, 0.1 and 0.01 μg/mL.
# (§5) Clonogenic progenitors of the human erythroid (CFU-E and BFU-E) and myeloid (CFU-GM) lineages were set up in the methylcellulose-based media formulations described above. All compounds were added to the medium to give the final desired concentrations (10, 2 and 0.4 μM). 5-Fluorouracil (Sigma Aldrich) was used as a positive control for progenitor proliferation (inhibition of colony growth) and was introduced to the human bone marrow cultures at 1.0, 0.1, and 0.01 μg/mL. Solvent control cultures (containing no compound but 0.1% DMSO) as well as standard controls (containing no compound and no DMSO) were also initiated.
# (§6) Human myeloid and erythroid progenitor assays were initiated at 2.0×10^4 cells per culture. Following 14 days in culture, myeloid and erythroid colonies were assessed microscopically and scored by trained personnel. The colonies were divided into the following categories based on size and morphology: CFU-E, BFU-E, CFU-GM and CFU-GEMM.
# (§7) The mean±one standard deviation of three replicate cultures was calculated for progenitors of each category (CFU-E, BFU-E, etc.). Two-tailed t-tests were performed to assess if there was a difference in the number of colonies generated between solvent control and treated cultures. Due to the potential subjectivity of colony enumeration, a p value of less than 0.01 is deemed significant. To calculate the concentration of 50% inhibition of colony growth (IC50) for each compound, a dose response curve was generated plotting the log of the compound concentration versus the percentage of control colony growth using XLfit software (IDBS). The concentration of 50% inhibition of colony growth (IC50) was calculated based on the sigmoid curve fit using Dose-Response, One-Site Model formula: y=A+[(B−A)/(1+((C/x)^D))], where A=the initial value (baseline response), B=maximum response, C=center (drug concentration that provokes a response halfway between A and B) and D=slope of the curve at midpoint. Further, plots and additional dose response curves were generated using GraphPad Prism 7.0.
# (§8) Erythroid (CFU-E and BFU-E), myeloid (CFU-GM) and multi-potential (CFU-GEMM) colony enumeration was performed by trained personnel. The distribution of colony types as well as general colony and cellular morphology was analyzed. For statistical analysis colony numbers in compound treated cultures were compared to the solvent control cultures. […]
# [5] = tested on: human myeloid progenitors (CFU-GM); test: Myeloid CFU assay (colony forming cell assay, bone marrow); format: cell-based; conditions: 14 days in culture
# Experimental: as §2, §3, §4, §5, §6, §7, §8
# [6] = iv, 1 mg/kg, 1 mg/kg IV, read-out: IV PK T1/2 (converted)
# [7] = po, 10 mg/kg, PO, read-out: PO T1/2 (converted)
# T1 sequence (Q92769 whole entry): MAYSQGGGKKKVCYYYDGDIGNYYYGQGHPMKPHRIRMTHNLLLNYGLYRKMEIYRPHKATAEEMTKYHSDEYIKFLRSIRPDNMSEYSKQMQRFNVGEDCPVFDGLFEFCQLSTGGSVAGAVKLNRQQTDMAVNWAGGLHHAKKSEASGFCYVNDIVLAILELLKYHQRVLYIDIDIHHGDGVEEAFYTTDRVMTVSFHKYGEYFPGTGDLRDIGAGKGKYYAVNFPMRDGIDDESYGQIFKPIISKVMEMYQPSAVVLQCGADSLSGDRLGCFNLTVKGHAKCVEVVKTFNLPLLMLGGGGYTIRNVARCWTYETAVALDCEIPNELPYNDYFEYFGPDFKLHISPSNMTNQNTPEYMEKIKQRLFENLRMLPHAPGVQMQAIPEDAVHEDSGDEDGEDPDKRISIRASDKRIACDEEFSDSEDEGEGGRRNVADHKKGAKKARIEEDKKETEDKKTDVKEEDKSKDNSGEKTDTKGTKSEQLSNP
# Chain of HDAC1 (Q13547 whole entry): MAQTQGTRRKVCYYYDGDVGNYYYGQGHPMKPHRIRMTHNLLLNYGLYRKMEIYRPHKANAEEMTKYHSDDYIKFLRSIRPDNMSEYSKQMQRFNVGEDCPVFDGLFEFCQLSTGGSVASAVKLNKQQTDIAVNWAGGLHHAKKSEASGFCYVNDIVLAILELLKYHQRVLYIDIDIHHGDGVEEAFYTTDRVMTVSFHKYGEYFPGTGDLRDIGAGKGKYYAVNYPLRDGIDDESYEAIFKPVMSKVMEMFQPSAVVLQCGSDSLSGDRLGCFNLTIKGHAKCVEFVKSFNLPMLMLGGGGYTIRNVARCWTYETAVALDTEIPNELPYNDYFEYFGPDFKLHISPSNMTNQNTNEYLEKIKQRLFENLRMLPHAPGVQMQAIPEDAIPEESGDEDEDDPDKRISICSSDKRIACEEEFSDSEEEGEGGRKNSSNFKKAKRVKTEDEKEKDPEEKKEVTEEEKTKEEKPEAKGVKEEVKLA
Structure (SMILES),pIC50 (HDAC2 [1]),"half-life [3, 6] [h]","half-life [3, 7] [h]",clearance ([3]; 1 mg/kg IV) [L/h/kg],Erythroid % control @ 10 uM dose [4] [%],Myeloid % control @ 10 uM dose [5] [%],also measured
Nc1ccc(-c2cccnc2)nc1NC(=O)N1Cc2cnc(C(F)F)cc2C1 [Compound 16],< 5.82,–,–,–,–,–,–
Nc1ccc(-c2ccc(F)cc2F)nc1NC(=O)N1Cc2cn(C3COC3)nc2C1 [Compound 6],6.00 to 7.00,–,–,–,–,–,pIC50 (HDAC1): 5.30 to 6.30; pIC50 (HDAC2 [2]): 5.30 to 6.30
Nc1ccc(-c2cccnc2)nc1NC(=O)N1Cc2cnc(CC(F)F)cc2C1 [Compound 15],6.00 to 7.00,–,–,–,–,–,–
Cc1nc2c(n1C)CN(C(=O)Nc1nc(-c3ccc(F)cc3)ccc1N)C2 [Compound 7],6.00 to 7.00,3.06,2.95,1.71,–,–,Projected free brain @ 10 mpk [3]: 0.050 µM; Brain Cmax @ 10 mpk ([3]; brain): 102 ng/g
Cc1ncc(-c2ccc(N)c(NC(=O)N3Cc4cn(C)nc4C3)n2)s1 [Compound 4],6.00 to 7.00,1.86,2.12,0.536,53,96,Projected free brain @ 10 mpk [3]: 0.479 µM; Brain Cmax @ 10 mpk ([3]; brain): 324 ng/g
Cn1cc2c(n1)CN(C(=O)Nc1nc(-c3cccnc3)ccc1N)C2 [Compound 11],6.00 to 7.00,7.53,2.9,1.07,94,103,Projected free brain @ 10 mpk [3]: 0.664 µM; Brain Cmax @ 10 mpk ([3]; brain): 369 ng/g
"COCc1cc2c(cn1)CN(C(=O)Nc1nc(-c3ccc(F)cc3)ccc1N)C2 [Comparator 5, reference compound]",–,–,–,–,22.9,58.9,–
"Nc1ccc(-c2ccc(F)cc2)nc1NC(=O)N1Cc2cncnc2C1 [Comparator 1, reference compound]",–,–,–,–,47.1,83.9,"Projected free brain @ 10 mpk (uM) (*scaled for comparison) ([3]; dosed 30 mg/kg PO, scaled to 10 mg/kg PO): 0.111* uM; Brain Cmax @ 10 mpk ng/g (*scaled for comparison) ([3]; dosed 30 mg/kg PO, scaled to 10 mg/kg PO, brain): 158* ng/g"
"Cn1cc2c(n1)CN(C(=O)Nc1nc(-c3ccc(F)cc3)ccc1N)C2 [Comparator 2, reference compound]",–,–,–,–,15.7,30.4,–
"Cc1cc2c(cn1)CN(C(=O)Nc1nc(-c3ccc(F)cc3)ccc1N)C2 [Comparator 3, reference compound]",–,–,–,–,25.7,66.1,–
Nc1ccc(-c2cccs2)nc1NC(=O)N1Cc2cncnc2C1 [Comparator 6],–,0.152,0.557,8.33,–,–,–
